Data reported in PubChem BioAssay AID1963961 (Molecular Pharmacology Branch, DTP, NCI, 2024).
Several values for one entry are separate records, joined by “and”; a condition that tells them apart may be missing. Identical values can stand only once. Each block holds one compound with its values, some of them ahead of it.

System: K98450-129-R-PDC multicell spheroids, viability
Test: Anticancer human tumor K98450-129-R-PDC patient-derived colon adenocarcinoma cell line growth inhibition [PI3K]
Conditions: for viability, T/C: stronger effect = lower value
In short: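 Stroma-containing spheroids: tumor line, pooled-donor HUVEC, hMSC. Treatments: targeted agents with PI3K inhibitors. Dosing: clinically relevant, half-log spacing, 10 microM ceiling without known Cmax. Read-out: cell viability.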

[1] = curve of first compound, second compound 0.0316 µM
[2] = curve of first compound, second compound 0.1 µM
[3] = curve of first compound, second compound 0.316 µM
[4] = curve of first compound, second compound 1 µM
[5] = second compound 0.0316 µM, first compound 0.0316 µM
[6] = second compound 0.0316 µM, first compound 0.1 µM
[7] = second compound 0.0316 µM, first compound 0.316 µM
[8] = second compound 0.0316 µM, first compound 1 µM
[9] = second compound 0.0316 µM, first compound 3.16 µM
[10] = second compound 0.0316 µM, first compound 10 µM
[11] = second compound 0.1 µM, first compound 0.0316 µM
[12] = second compound 0.1 µM, first compound 0.1 µM
[13] = second compound 0.1 µM, first compound 0.316 µM
[14] = second compound 0.1 µM, first compound 1 µM
[15] = second compound 0.1 µM, first compound 3.16 µM
[16] = second compound 0.1 µM, first compound 10 µM
[17] = second compound 0.316 µM, first compound 0.0316 µM
[18] = second compound 0.316 µM, first compound 0.1 µM
[19] = second compound 0.316 µM, first compound 0.316 µM
[20] = second compound 0.316 µM, first compound 1 µM
[21] = second compound 0.316 µM, first compound 3.16 µM
[22] = second compound 0.316 µM, first compound 10 µM
[23] = second compound 1 µM, first compound 0.0316 µM
[24] = second compound 1 µM, first compound 0.1 µM
[25] = second compound 1 µM, first compound 0.316 µM
[26] = second compound 1 µM, first compound 1 µM
[27] = second compound 1 µM, first compound 3.16 µM
[28] = second compound 1 µM, first compound 10 µM
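Further: spheroids exposed to agents for seven days before read-out.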

IC50 [1]: 6.03 µM
IC50 [2]: 5.71 µM
IC50 [3]: 5.78 µM
IC50 [4]: 5.4 µM
IC50 (curve of first compound, second compound 3.16 µM): 5.16 µM
IC50 (curve of first compound, second compound 10 µM): 4.66 µM
Structure (SMILES): CC1(C)CCC(CN2CCN(c3ccc(C(=O)NS(=O)(=O)c4ccc(NCC5CCOCC5)c([N+](=O)[O-])c4)c(Oc4cnc5[nH]ccc5c4)c3)CC2)=C(c2ccc(Cl)cc2)C1 + Cc1nc(NC(=O)N2CCCC2C(N)=O)sc1-c1ccnc(C(C)(C)C(F)(F)F)c1
viability, T/C [5]: 105%
viability, T/C [6]: 101%
viability, T/C [7]: 106%
viability, T/C [8]: 100%
viability, T/C [9]: 98.3%
viability, T/C [10]: 12.2%
viability, T/C [11]: 104%
viability, T/C [12]: 96.9%
viability, T/C [13]: 104%
viability, T/C [14]: 95%
viability, T/C [15]: 92.5%
viability, T/C [16]: 9.67%
viability, T/C [17]: 99.5%
viability, T/C [18]: 95.5%
viability, T/C [19]: 98.6%
viability, T/C [20]: 92.4%
viability, T/C [21]: 93.5%
viability, T/C [22]: 10.5%
viability, T/C [23]: 88.4%
viability, T/C [24]: 94.4%
viability, T/C [25]: 94.9%
viability, T/C [26]: 91%
viability, T/C [27]: 88.4%
viability, T/C [28]: 5.86%
viability, T/C (second compound 3.16 µM, first compound 0.0316 µM): 80.6%
viability, T/C (second compound 3.16 µM, first compound 0.1 µM): 87.4%
viability, T/C (second compound 3.16 µM, first compound 0.316 µM): 86%
viability, T/C (second compound 3.16 µM, first compound 1 µM): 84.3%
viability, T/C (second compound 3.16 µM, first compound 3.16 µM): 83%
viability, T/C (second compound 3.16 µM, first compound 10 µM): 5.29%
viability, T/C (second compound 10 µM, first compound 0.0316 µM): 70%
viability, T/C (second compound 10 µM, first compound 0.1 µM): 73.9%
viability, T/C (second compound 10 µM, first compound 0.316 µM): 72.9%
viability, T/C (second compound 10 µM, first compound 1 µM): 68.5%
viability, T/C (second compound 10 µM, first compound 3.16 µM): 77%
viability, T/C (second compound 10 µM, first compound 10 µM): 5.54%

IC50 (curve of first compound, second compound 0.00316 µM): > 10 µM
IC50 (curve of first compound, second compound 0.01 µM): > 10 µM
IC50 [1]: > 10 µM
IC50 [2]: > 10 µM
IC50 [3]: > 10 µM
IC50 [4]: > 10 µM
Structure (SMILES): Cn1nccc1Nc1nccc(-c2ccn(C(CO)c3ccc(Cl)c(F)c3)c(=O)c2)n1 (stereo unspecified) + CC(Nc1ccc2c(c1)OCCn1cc(N3C(=O)OCC3C(F)F)nc1-2)C(N)=O
viability, T/C (second compound 0.00316 µM, first compound 0.0316 µM): 109%
viability, T/C (second compound 0.00316 µM, first compound 0.1 µM): 96.3%
viability, T/C (second compound 0.00316 µM, first compound 0.316 µM): 107%
viability, T/C (second compound 0.00316 µM, first compound 1 µM): 99.2%
viability, T/C (second compound 0.00316 µM, first compound 3.16 µM): 101%
viability, T/C (second compound 0.00316 µM, first compound 10 µM): 94.2%
viability, T/C (second compound 0.01 µM, first compound 0.0316 µM): 108%
viability, T/C (second compound 0.01 µM, first compound 0.1 µM): 97.5%
viability, T/C (second compound 0.01 µM, first compound 0.316 µM): 99.1%
viability, T/C (second compound 0.01 µM, first compound 1 µM): 94.7%
viability, T/C (second compound 0.01 µM, first compound 3.16 µM): 98.8%
viability, T/C (second compound 0.01 µM, first compound 10 µM): 88.7%
viability, T/C [5]: 103%
viability, T/C [6]: 103%
viability, T/C [7]: 96.5%
viability, T/C [8]: 94.4%
viability, T/C [9]: 99.2%
viability, T/C [10]: 91%
viability, T/C [11]: 95.5%
viability, T/C [12]: 98.5%
viability, T/C [13]: 98.2%
viability, T/C [14]: 93.1%
viability, T/C [15]: 98.9%
viability, T/C [16]: 88.7%
viability, T/C [17]: 91.5%
viability, T/C [18]: 90.7%
viability, T/C [19]: 101%
viability, T/C [20]: 96.2%
viability, T/C [21]: 99.4%
viability, T/C [22]: 87.4%
viability, T/C [23]: 83.6%
viability, T/C [24]: 84.4%
viability, T/C [25]: 91%
viability, T/C [26]: 87.7%
viability, T/C [27]: 90.9%
viability, T/C [28]: 82.2%

IC50 (curve of compound): 8.62 µM and > 10 µM and 9.21 µM
Structure (SMILES): CC1(C)CCC(Nc2ncc(C(F)(F)F)c(-c3c[nH]c4c(P(C)(C)=O)c(C#N)ccc34)n2)CN1 (stereo unspecified)
viability, T/C (compound 0.0316 µM): 107% and 114% (2×) and 124%
viability, T/C (compound 0.1 µM): 99% [middle of 4 runs]
viability, T/C (compound 0.316 µM): 88.8% [middle of 4 runs]
viability, T/C (compound 1 µM): 70.6% [middle of 4 runs]
viability, T/C (compound 3.16 µM): 66.8% [middle of 4 runs]
viability, T/C (compound 10 µM): 63.4% [middle of 4 runs]
